In patent US8247211B2, “Glycopeptide antibiotics” (American Cyanamid Company, priority 2001, dated 2012):

Key:
Experiment in all cases: In vitro antibacterial evaluation: minimum inhibitory concentration (MIC), broth dilution method
Assay type in all cases: cell-based
Staphylococcus sp. = settings: broth dilution, 18 hours at 35° C.
Procedure: (§1) The minimum inhibitory concentration (MIC), the lowest concentration of the antibiotic which inhibits growth of the test organism, is determined by the broth dilution method using Muller-Hinton II […] (Baltimore Biological Laboratories) following the recommendations of the National Committee for Clinical Laboratory Standards [Methods for dilution antimicrobial susceptibility tests for bacteria that grow aerobically, approved standard M7-A2, National Committee for Clinical Laboratory Standards, Villanova, Pa].
(§2) An inoculum level of 5×10^5 CFU/mL, and a range of antibiotic concentrations (64-0.06 μg/mL) is used. […] The test organisms include a spectrum of Gram-positive bacteria comprised of Staphylococcus sp., Streptococcus sp. and Enterococcus sp. These organisms include recent clinical isolates that are resistant to methicillin, penicillin and/or vancomycin.

Escherichia coli = settings: for MIC Escherichia coli (GC 4559): strain GC 4559; for MIC Escherichi coli (GC 4560): strain GC 4560
Procedure: as §1, §2

Streptococcus sp. = settings: for MIC Streptococcus pyogenes (GC 4563): strain GC 4563; for MIC Streptococcus agalactiae (GC 4564): strain GC 4564
Procedure: as §1, §2

Enterococcus sp. = settings: for MIC Enterococcus faecalis (ATCC 29212): strain ATCC 29212; for MIC Enterococcus faecalis (GC 2242): strain GC 2242; for MIC Enterococcus faecium (GC 2243): strain GC 2243; for MIC Enterococcus faecalis (GC 2691): strain GC 2691; for MIC Enterococcus faecalis (GC 3059): strain GC 3059; for MIC Enterococcus faecalis (GC 4552): strain GC 4552; for MIC Enterococcus faecalis (GC 4553): strain GC 4553; for MIC Enterococcus faecalis (GC 4554): strain GC 4554; for MIC Enterococcus faecium (GC 4556): strain GC 4556; for MIC Enterococcus faecium (GC 4557): strain GC 4557; for MIC Enterococcus avium (GC 4558): strain GC 4558; for MIC Enterococcus faecalis (GC 6189): strain GC 6189
Procedure: as §1, §2

CC(c1ccccc1)C1NC(=O)CNC(=O)C(CO)NC(=O)C(C(O)C2CNC(=N)N2C2OC(CO)C(O)C(O)C2O)NC(=O)C(C(O)C2CNC(=N)N2)NC(=O)C(Cc2ccc(OC3OC(CO)C(OC4OC5COC(c6ccc(C(C)(C)C)cc6)OC5C(O)C4O)C(O)C3O)cc2)NC1=O (stereo not drawn) [Example 147, Cyclo[glycyl-β-methylphenylalanyl-O-[4-O-[4,6-O-(4-tert-butylbenzylidene)hexonyranosyl]-hexopyranosyl]tyrosyl-3-(2-iminoimidazolidin-4-yl)seryl-3-(3-hexopyranosyl-2-iminoimidazolidin-4-yl)serylseryl]]
2 µg/mL: MIC Coagulase Negative Staphylococcus (GC 6257) (Staphylococcus sp.; 5×10^5 CFU/mL) | MIC Coagulase Negative Staphylococcus (GC 6257) (Staphylococcus sp.; strain GC 6257) | MIC Enterococcus faecium (GC 4556) (Enterococcus sp.)
1 µg/mL: MIC Coagulase Negative Staphylococcus (GC 4551) (Staphylococcus sp.; 5×10^5 CFU/mL) | MIC Coagulase Negative Staphylococcus (ID-3941) (Staphylococcus sp.; 5×10^5 CFU/mL) | MIC Coagulase Negative Staphylococcus (GC 4551) (Staphylococcus sp.; strain GC 4551) | MIC Coagulase Negative Staphylococcus (ID-3941) (Staphylococcus sp.; strain ID-3941)
<0.12 µg/mL: MIC Streptococcus agalactiae (GC 4564) (Streptococcus sp.)
1 to 2 µg/mL: MIC Coagulase Negative Staphylococcus (GC 4547) (Staphylococcus sp.; 5×10^5 CFU/mL) | MIC Staphylococcus haemolyticus (GC 4546) (Staphylococcus sp.; 5×10^5 CFU/mL) | MIC Staphylococcus haemolyticus (GC 4546) (Staphylococcus sp.; strain GC 4546) | MIC Coagulase Negative Staphylococcus (GC 4547) (Staphylococcus sp.; strain GC 4547) | MIC Enterococcus faecium (GC 2243) (Enterococcus sp.) | MIC Enterococcus faecium (GC 4557) (Enterococcus sp.)
<0.5 µg/mL: MIC Streptococcus pyogenes (ID-3187) (Streptococcus sp.; strain ID-3187)
>0.12 µg/mL: MIC Streptococcus pyogenes (GC 4563) (Streptococcus sp.)
0.5 µg/mL: MIC Staphylococcus aureus (GC 3051) (Staphylococcus sp.; 5×10^5 CFU/mL) | MIC Staphylococcus aureus (GC 3053) (Staphylococcus sp.; 5×10^5 CFU/mL) | MIC Staphylococcus aureus (GC 3051) (Staphylococcus sp.; strain GC 3051) | MIC Staphylococcus aureus (GC 3053) (Staphylococcus sp.; strain GC 3053) | MIC Enterococcus faecalis (GC 2691) (Enterococcus sp.) | MIC Enterococcus faecalis (GC 3059) (Enterococcus sp.) | MIC Enterococcus faecalis (GC 6189) (Enterococcus sp.)
0.5 to 1 µg/mL: MIC Staphylococcus aureus (GC 4542) (Staphylococcus sp.; 5×10^5 CFU/mL) | MIC Staphylococcus aureus (GC 4544) (Staphylococcus sp.; 5×10^5 CFU/mL) | MIC Staphylococcus aureus (GC 4545) (Staphylococcus sp.; 5×10^5 CFU/mL) | MIC Staphylococcus aureus-SMITH (GC 4543) (Staphylococcus sp.; 5×10^5 CFU/mL) | MIC Staphylococcus aureus (GC 4542) (Staphylococcus sp.; strain GC 4542) | MIC Staphylococcus aureus-SMITH (GC 4543) (Staphylococcus sp.; strain GC 4543) | MIC Staphylococcus aureus (GC 4544) (Staphylococcus sp.; strain GC 4544) | MIC Staphylococcus aureus (GC 4545) (Staphylococcus sp.; strain GC 4545) | MIC Enterococcus faecalis (GC 2242) (Enterococcus sp.) | MIC Enterococcus faecalis (GC 4552) (Enterococcus sp.) | MIC Enterococcus faecalis (GC 4553) (Enterococcus sp.) | MIC Enterococcus faecalis (GC 4554) (Enterococcus sp.)
<0.5 to 1 µg/mL: MIC Coagulase Negative Staphylococcus (GC 4548) (Staphylococcus sp.; 5×10^5 CFU/mL) | MIC Coagulase Negative Staphylococcus (GC 4549) (Staphylococcus sp.; 5×10^5 CFU/mL) | MIC Coagulase Negative Staphylococcus (GC 4548) (Staphylococcus sp.; strain GC 4548) | MIC Coagulase Negative Staphylococcus (GC 4549) (Staphylococcus sp.; strain GC 4549)
64 µg/mL: MIC Escherichia coli (GC 4559) (Escherichia coli)
0.5 to 2 µg/mL: MIC Escherichi coli (GC 4560) (Escherichia coli) | MIC Enterococcus faecalis (ATCC 29212) (Enterococcus sp.) | MIC Enterococcus avium (GC 4558) (Enterococcus sp.)

CC(c1ccccc1)C1NC(=O)CNC(=O)C(CO)NC(=O)C(C(O)C2CNC(=N)N2C2OC(CO)C(O)C(O)C2O)NC(=O)C(C(O)C2CNC(=N)N2)NC(=O)C(Cc2ccc(OC3OC(CO)C(OC4OC5COC(c6ccc7c(c6)OCCO7)OC5C(O)C4O)C(O)C3O)cc2)NC1=O (stereo not drawn) [Example 149]
64 µg/mL: MIC Escherichia coli (GC 4559) (Escherichia coli)
1 µg/mL: MIC Coagulase Negative Staphylococcus (GC 4547) (Staphylococcus sp.; 5×10^5 CFU/mL) | MIC Coagulase Negative Staphylococcus (GC 4548) (Staphylococcus sp.; 5×10^5 CFU/mL) | MIC Coagulase Negative Staphylococcus (GC 4549) (Staphylococcus sp.; 5×10^5 CFU/mL) | MIC Coagulase Negative Staphylococcus (GC 4551) (Staphylococcus sp.; 5×10^5 CFU/mL) | MIC Coagulase Negative Staphylococcus (GC 6257) (Staphylococcus sp.; 5×10^5 CFU/mL) | MIC Staphylococcus haemolyticus (GC 4546) (Staphylococcus sp.; 5×10^5 CFU/mL) | MIC Staphylococcus haemolyticus (GC 4546) (Staphylococcus sp.; strain GC 4546) | MIC Coagulase Negative Staphylococcus (GC 4547) (Staphylococcus sp.; strain GC 4547) | MIC Coagulase Negative Staphylococcus (GC 4548) (Staphylococcus sp.; strain GC 4548) | MIC Coagulase Negative Staphylococcus (GC 4549) (Staphylococcus sp.; strain GC 4549) | MIC Coagulase Negative Staphylococcus (GC 4551) (Staphylococcus sp.; strain GC 4551) | MIC Coagulase Negative Staphylococcus (GC 6257) (Staphylococcus sp.; strain GC 6257) | MIC Streptococcus agalactiae (GC 4564) (Streptococcus sp.)
4 µg/mL: MIC Staphylococcus aureus (GC 3053) (Staphylococcus sp.; 5×10^5 CFU/mL) | MIC Staphylococcus aureus (GC 3053) (Staphylococcus sp.; strain GC 3053)
8 µg/mL: MIC Enterococcus faecalis (ATCC 29212) (Enterococcus sp.) | MIC Enterococcus faecalis (GC 2242) (Enterococcus sp.) | MIC Enterococcus faecium (GC 2243) (Enterococcus sp.) | MIC Enterococcus faecalis (GC 2691) (Enterococcus sp.) | MIC Enterococcus faecalis (GC 3059) (Enterococcus sp.) | MIC Enterococcus faecalis (GC 4552) (Enterococcus sp.) | MIC Enterococcus faecalis (GC 4553) (Enterococcus sp.) | MIC Enterococcus faecalis (GC 4554) (Enterococcus sp.) | MIC Enterococcus faecium (GC 4556) (Enterococcus sp.) | MIC Enterococcus avium (GC 4558) (Enterococcus sp.) | MIC Enterococcus faecalis (GC 6189) (Enterococcus sp.)
>64 µg/mL: MIC Escherichia coli (ATCC 25922) (Escherichia coli; strain ATCC 25922)
2 µg/mL: MIC Staphylococcus aureus (ATCC 29213) (Staphylococcus sp.; 5×10^5 CFU/mL) | MIC Staphylococcus aureus (GC 1131) (Staphylococcus sp.; 5×10^5 CFU/mL) | MIC Staphylococcus aureus (GC 3051) (Staphylococcus sp.; 5×10^5 CFU/mL) | MIC Staphylococcus aureus (GC 4541) (Staphylococcus sp.; 5×10^5 CFU/mL) | MIC Staphylococcus aureus (GC 4542) (Staphylococcus sp.; 5×10^5 CFU/mL) | MIC Staphylococcus aureus (GC 4544) (Staphylococcus sp.; 5×10^5 CFU/mL) | MIC Staphylococcus aureus (GC 4545) (Staphylococcus sp.; 5×10^5 CFU/mL) | MIC Staphylococcus aureus-SMITH (GC 4543) (Staphylococcus sp.; 5×10^5 CFU/mL) | MIC Staphylococcus aureus (ATCC 29213) (Staphylococcus sp.; strain ATCC 29213) | MIC Staphylococcus aureus (GC 1131) (Staphylococcus sp.; strain GC 1131) | MIC Staphylococcus aureus (GC 3051) (Staphylococcus sp.; strain GC 3051) | MIC Staphylococcus aureus (GC 4541) (Staphylococcus sp.; strain GC 4541) | MIC Staphylococcus aureus (GC 4542) (Staphylococcus sp.; strain GC 4542) | MIC Staphylococcus aureus-SMITH (GC 4543) (Staphylococcus sp.; strain GC 4543) | MIC Staphylococcus aureus (GC 4544) (Staphylococcus sp.; strain GC 4544) | MIC Staphylococcus aureus (GC 4545) (Staphylococcus sp.; strain GC 4545) | MIC Streptococcus pneumoniae (GC 4565) (Streptococcus sp.; strain GC 4565) | MIC Enterococcus faecium (GC 4557) (Enterococcus sp.)
<0.5 µg/mL: MIC Escherichi coli (GC 4560) (Escherichia coli) | MIC Streptococcus pneumoniae (ATCC 6301) (Streptococcus sp.; strain ATCC 6301) | MIC Streptococcus pneumoniae (GC 1894) (Streptococcus sp.; strain GC 1894) | MIC Streptococcus pyogenes (GC 4563) (Streptococcus sp.)
